Data on four compounds can be found in ChEMBL document CHEMBL5360578, “Design, synthesis and evaluation of novel pyrrole-hydroxybutenolide hybrids as promising antiplasmodial and anti-inflammatory agents” (Eur J Med Chem, 2023).

The test system of series [1] is HEK-293T. The experiment in a line: Antiinflammatory activity against HEK293T cells assessed as fold increase in TNFalpha-induced NF-kappaB activity at 1 uM incubated for 1 hr followed by TNFalpha treatment for 5 hrs by luciferase based assay (reference value: 17.1). The following applies: time 6 hrs. The format is functional, Homo sapiens.
Series [2] deals with Mus musculus. The experiment in a line: Antiinflammatory activity in Swiss albino mouse assessed as inhibition of carrageenan-induced paw edema at 50 mg/kg,po pretreated for 1 hr followed by carrageenan administration measured after 6 hrs relative to control. The format is functional. The following applies: time 7 hrs.
Series [3] deals with THP-1. Briefly: Downregulation of LPS-induced ERK1/2 phosphorylation in human THP-1 cells at 10 uM incubated for 60 mins followed by LPS treatment 90 mins by […]. It is filed as functional, cell-based. The following applies: time 150.0 min.
For series [4], the system named is Mus musculus. Briefly: Antiinflammatory activity in Swiss albino mouse assessed as inhibition of carrageenan-induced paw edema at 100 mg/kg,po pretreated for 1 hr followed by carrageenan administration measured after 4 hrs relative to control. It is filed as functional. To be noted: time 5 hrs.
Series [5] in a line: Stability in simulated physiological fluid assessed as compound remaining at pH 7.4 measured upto 120 mins by LC-MS analysis. It is filed as physicochemical. The following applies: read-out: Stability.
The test system of series [6] is Plasmodium yoelii. The experiment in a line: Antimalarial activity against chloroquine-resistant Plasmodium yoelii N67 infected in Swiss mouse assessed as parasite growth suppression at 100 mg/kg/day, po for 4 days measured on day 7 relative to control. It is filed as functional. The following applies: time 7 day.
A short description of series [7]: Cmax in fasted Swiss mouse at 50 mg/kg, po measured upto 48 hrs by LC-MS/MS analysis. To be noted: in vivo. Further details: time < 48 hrs, dose 50 mg/kg, route po. The format is ADME, organism-based.
Series [8] relates to Mus musculus. Briefly: Antiinflammatory activity in Swiss albino mouse assessed as inhibition of carrageenan-induced paw edema at 25 mg/kg,po pretreated for 1 hr followed by carrageenan administration measured after 6 hrs relative to control. The format is functional. The following applies: time 7 hrs.
The nature of series [9]: Stability in simulated gastric fluid assessed as compound remaining at pH 1.2 measured upto 120 mins by LC-MS analysis. The format is ADME. The following applies: read-out: Stability.
For series [10], the system named is THP-1. Briefly: Cytotoxicity against LPS-stimulated human THP-1 cells assessed as cell viability at 10 uM incubated for 12 hrs followed by LPS treatment measured after 4 hrs by PI staining based flow cytometry. The format is functional. To be noted: time 16.0 hrs.
Series [11] deals with THP-1. Briefly: Antiinflammatory activity against human THP-1 cells assessed as inhibition of LPS-induced TNFalpha level at 10 uM incubated for 12 to 14 hrs followed by compound replenishment for 1 hr and subsequent LPS treatment for 4 hrs by ELISA assay (reference value: 93.43 %). The format is functional. Also noted: scale not given: the % may be the effect or the level left. The following applies: time 17-19 hrs.

The nature of series [12]: Stability in mouse plasma assessed as compound remaining at 10 uM measured upto 120 mins by LC-MS analysis. The format is ADME, cell-free. To be noted: read-out: Stability.
Series [13] is described as follows: Volume of distribution in fasted Swiss mouse at 50 mg/kg, po measured upto 48 hrs by LC-MS/MS analysis. It is filed as ADME, organism-based. The following applies: in vivo.
Series [14] in a line: Stability in simulated intestinal fluid assessed as compound remaining at pH 6.8 measured upto 120 mins by LC-MS analysis. To be noted: read-out: Stability. It is filed as ADME.
Series [15] in a line: AUC in fasted Swiss mouse at 50 mg/kg, po measured upto 48 hrs by LC-MS/MS analysis. It is filed as ADME, organism-based. Also noted: time < 48 hrs, dose 50 mg/kg, route po. To be noted: in vivo.
A short description of series [16]: MRT in fasted Swiss mouse at 50 mg/kg, po measured upto 48 hrs by LC-MS/MS analysis. The format is ADME, organism-based. The following applies: in vivo.
Series [17] concerns Mus musculus. Briefly: Antiinflammatory activity in Swiss albino mouse assessed as inhibition of carrageenan-induced paw edema at 50 mg/kg,po pretreated for 1 hr followed by carrageenan administration measured after 4 hrs relative to control. It is filed as functional. To be noted: time 5 hrs.
The subject of series [18] is HEK-293T. Briefly: Antiinflammatory activity against HEK293T cells assessed as fold increase in TNFalpha-induced NF-kappaB activity at 10 uM incubated for 1 hr followed by TNFalpha treatment for 5 hrs by luciferase based assay (reference value: 17.1). The format is functional, Homo sapiens.
Series [19] has as its system Mus musculus. The experiment in a line: Antiinflammatory activity in Swiss albino mouse assessed as inhibition of carrageenan-induced paw edema at 100 mg/kg,po pretreated for 1 hr followed by carrageenan administration measured after 6 hrs relative to control. The format is functional. To be noted: time 7 hrs.
The subject of series [20] is Plasmodium yoelii. The experiment in a line: Antimalarial activity against chloroquine-resistant Plasmodium yoelii N67 infected in Swiss mouse assessed as parasite growth suppression at 100 mg/kg/day, po for 4 days measured on day 4 relative to control. The following applies: time 4 day. The format is functional.
A short description of series [21]: Cytotoxicity against African green monkey Vero cells incubated for 3 days by fluorescence based assay. To be noted: chlorocebus sabaeus, time 3 day. The format is toxicity, cell-based.
Series [22] concerns Plasmodium falciparum. Briefly: Antimalarial activity against asynchronous chloroquine-sensitive Plasmodium falciparum 3D7 assessed as parasite growth inhibition infected in erythrocytes incubated for 72 hrs by SYBR green dye based assay. It is filed as functional, organism-based. The following applies: 3D7, 72 h.
Series [23] deals with Plasmodium falciparum. The experiment in a line: Antimalarial activity against asynchronous chloroquine-resistant Plasmodium falciparum K1 assessed as parasite growth inhibition infected in erythrocytes incubated for 72 hrs by SYBR green dye based assay. The format is functional, organism-based. The following applies: K1, 72 h.
The test system of series [24] is THP-1. Briefly: Downregulation of LPS-induced JNK1/2 phosphorylation in human THP-1 cells at 10 uM incubated for 60 mins followed by LPS treatment 90 mins by […]. The format is functional, cell-based. The following applies: time 150.0 min.
Series [25] in a line: Tmax in fasted Swiss mouse at 50 mg/kg, po measured upto 48 hrs by LC-MS/MS analysis. The format is ADME, organism-based. The following applies: in vivo.
Series [26] has as its system Mus musculus. Briefly: Antiinflammatory activity in Swiss albino mouse assessed as inhibition of carrageenan-induced paw edema at 25 mg/kg,po pretreated for 1 hr followed by carrageenan administration measured after 4 hrs relative to control. The following applies: time 5 hrs. It is filed as functional.
Series [27] is described as follows: Toxicity in Swiss mouse infected with chloroquine-resistant Plasmodium yoelii N67 assessed as mean survival time at 100 mg/kg/day, po for 4 days (reference value: 7.2 +/- 1.3 day). It is filed as organism-based. To be noted: in vivo, 96 h, time 4 day.
A short description of series [28]: Clearance in fasted Swiss mouse at 50 mg/kg, po measured upto 48 hrs by LC-MS/MS analysis. It is filed as ADME, organism-based. To be noted: in vivo.
Series [29] can be described thus: Half life in fasted Swiss mouse at 50 mg/kg, po measured upto 48 hrs by LC-MS/MS analysis. It is filed as ADME, organism-based. To be noted: in vivo.
Series [30] deals with Mus musculus. The experiment in a line: Antiinflammatory activity in Swiss albino mouse assessed as inhibition of carrageenan-induced paw edema at 200 mg/kg,po pretreated for 1 hr followed by carrageenan administration measured after 6 hrs relative to control. It is filed as functional. The following applies: time 7 hrs.
In series [31] the test system is Mus musculus. The experiment in a line: Antiinflammatory activity in Swiss albino mouse assessed as inhibition of carrageenan-induced paw edema at 200 mg/kg,po pretreated for 1 hr followed by carrageenan administration measured after 4 hrs relative to control. The format is functional. To be noted: time 5 hrs.
The nature of series [32]: Cmax in fasted Swiss mouse at 100 mg/kg, po measured upto 48 hrs by LC-MS/MS analysis. To be noted: in vivo. The format is ADME, organism-based. Further details: time < 48 hrs, dose 100 mg/kg, route po.
Series [33] can be described thus: Clearance in fasted Swiss mouse at 100 mg/kg, po measured upto 48 hrs by LC-MS/MS analysis. It is filed as ADME, organism-based. To be noted: in vivo.
Series [34] in a line: Volume of distribution in fasted Swiss mouse at 100 mg/kg, po measured upto 48 hrs by LC-MS/MS analysis. To be noted: in vivo. The format is ADME, organism-based.
The nature of series [35]: MRT in fasted Swiss mouse at 100 mg/kg, po measured upto 48 hrs by LC-MS/MS analysis. The format is ADME, organism-based. The following applies: in vivo.
A short description of series [36]: Tmax in fasted Swiss mouse at 100 mg/kg, po measured upto 48 hrs by LC-MS/MS analysis. The format is ADME, organism-based. To be noted: in vivo.
Series [37] in a line: Half life in fasted Swiss mouse at 100 mg/kg, po measured upto 48 hrs by LC-MS/MS analysis. The format is ADME, organism-based. To be noted: in vivo.
Series [38] in a line: AUC in fasted Swiss mouse at 100 mg/kg, po measured upto 48 hrs by LC-MS/MS analysis. Further details: dose 100 mg/kg, time < 48 hrs, route po. To be noted: in vivo. It is filed as ADME, organism-based.

Activity calls are given as the source filed them. No cut-off for these calls is given here.

Consider `S=C(S)N1CCCC1` [PYRROLIDINE DITHIOCARBAMATE], for which the “fold change (FC)” value in series [1] came to 2.3.

Consider `Cc1c(C(=O)Nc2ccccc2)c(-c2ccccc2)c(-c2ccc(C(C)C)cc2)n1CCC1=CC(=O)OC1O` (stereo unspecified), for which the figures for the inhibition in vivo at 50 mg/kg in series [2] and in series [17] were 58% and 60%, respectively. For the same compound, the outcome in series [3], in series [10] and in [24] was Active. Besides, the inhibition in vivo at 100 mg/kg is 67% in series [4] and 62% in series [19]. Further, the remaining at 2 h is 89.8% in series [5], 89.7% in series [9] and 89.9% in series [14]. Moreover, the figures for the Activity in series [6], in series [11] and in [20] were 46.4%, 92.51% and 69.4%, respectively. The compound further came in with a maximum concentration (Cmax) in series [7] of 369 ng/mL. For the same compound, the inhibition in vivo at 25 mg/kg was determined as 43% in [8] and 49% in series [26]. For the same compound, the remaining at 2 h, 10 µM in series [12] was found to be 81.8%. This compound also returned a Vd in [13] of 541.85 L/kg. The AUC at 48 h in series [15] is 178 ng·h/mL. The compound also showed an MRT in series [16] of 0.98 h. For the same compound, the “fold change (FC)” value in series [18] is 7.4. Further, in series [21], the CC50 at 72 h turned out to be 138000 nM. The half-maximal inhibitory concentration (IC50) in [22] turned out to be 970 nM; in series [23], 4210 nM. Also, the Tmax in [25] turned out to be 0.25 h. For the same compound, the MST in [27] stood at 12.2 days. Also, in series [28], the CL/F was 4870 mL/min/kg. In [29], the half-life was 1.25 h.

Regarding `CC(C)Cc1ccc(C(C)C(=O)O)cc1` (stereo unspecified) [IBUPROFEN], the inhibition in vivo at 200 mg/kg in series [30] is 72%; in [31] it was 78%.

`Cc1c(C(=O)Nc2ccccc2)c(-c2ccccc2)c(-c2ccc(C(C)C)cc2)n1CC1=CC(=O)OC1O` (stereo unspecified) returned a Cmax in series [32] of 415 ng/mL. The same compound had a CL/F in [33] of 966 mL/min/kg. Also, the Vd in [34] turned out to be 270.36 L/kg. The compound also showed a mean residence time (MRT) in [35] of 5.34 h. Besides, the remaining at 2 h in series [5] is 94.8%; in series [9], 85.4%; in [14], 86.2%. Besides, the Activity in [6] was 100%; in series [11], 91.44%; in [20] it was 77.79%. Further, the Tmax in series [36] worked out at 0.25 h. The outcome in series [10] was Active. In series [12], the remaining at 2 h, 10 µM was 85.8%. The half-life in [37] is 3.23 h. In series [18], the “fold change (FC)” value is recorded as 9.4. The compound also returned an AUC at 48 h in series [38] of 1730 ng·h/mL. Moreover, in series [21], the CC50 at 72 h worked out at 126000 nM. The figures for the IC50 in [22] and in series [23] were 960 nM and 1670 nM, respectively. The MST in series [27] came to 23.4 days.
